Assay results published in patent publication US20250009763A1, “METHODS FOR EXTENDING LIFESPAN AND/OR DELAYING AGING” (priority 2023, published 2025).

System: yeast BY4741 (WT)
Assay: Micromanipulation assay of replicative lifespan (RLS)
Type: cell-based, Saccharomyces cerevisiae
Settings: 25 μM; FIG. 1F
Procedure: The micromanipulation of the yeast cells was carried out as follows. Prior to analysis, yeast strains BY4741 (WT), BY4741-fob1Δ (fob1Δ), or BY4741-sir2Δfob1Δ (sir2Δfob1Δ) were plated onto fresh solid YEPD medium and grown at 30° C. for two days. Then, individual colonies were picked and grown in solid YEPD media containing: (1) dimethyl sulfoxide (DMSO), (2) 10, 25, or 50 μM PN6, or (3) 25 μM β-sitosterol at 30° C. overnight, and a small number of yeast cells were then plated onto a fresh YEPD plate for lifespan analysis. After overnight growth on the lifespan plates, the cells were arrayed on the plate using a micromanipulator and allowed to grow for approximately 3 hours. Virgin daughter cells were selected and subjected to lifespan analysis. In the lifespan experiments, the plates were incubated at 30° C. during the day and stored at 4° C. overnight. Each experiment consisted of more than 50 mother cells and was independently repeated three times.

CC[C@H](CC[C@@H](C)[C@H]1CC[C@H]2[C@@H]3CC=C4C[C@@H](O)CC[C@]4(C)[C@H]3CC[C@]12C)C(C)C [3-sitosterol, β-sitosterol]
extension of the RLS of yeast: not seen
